Laboratory results from PMC5855801, “Benzothiophenone Derivatives Targeting Mutant Forms of Estrogen Receptor-α in Hormone-Resistant Breast Cancers” (International Journal of Molecular Sciences, 2018).

Key:
[1] = tested on: ERα-dependent genes pS2, PR, Cyclin D1 and CDC2; assay: qRT-PCR of ERα-dependent genes in MCF7 cells; assay type: cell-based, human; details: MCF7, 24 h, 1 nM E2
Method: mRNA levels were analyzed after treatment of MCF7 and TamR3 cells for 24 h with the test compounds as described previously. The fold change in expression of the genes was calculated using the 2^−ΔΔCt method with GAPDH as the internal control.

ERα LBD = molecular target: T1, ERα LBD (Homo sapiens, UniProt P03372); assay: Biolayer interferometry (BLI) direct binding assay; details: biotinylated ERα LBD on streptavidin sensor, 3–100 μM
T1 construct: ERα LBD (amino acids 302–552) was cloned into the pAN4 AviTag™ Vector; made in house
T1 sequence (P03372 302-552): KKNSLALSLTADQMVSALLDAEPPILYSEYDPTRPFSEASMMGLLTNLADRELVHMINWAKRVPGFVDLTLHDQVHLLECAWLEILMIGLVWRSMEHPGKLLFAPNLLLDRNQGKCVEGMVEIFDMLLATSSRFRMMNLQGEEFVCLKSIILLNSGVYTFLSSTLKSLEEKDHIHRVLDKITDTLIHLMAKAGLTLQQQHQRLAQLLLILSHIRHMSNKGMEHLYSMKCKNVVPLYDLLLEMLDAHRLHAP
Method: The direct binding of small molecules to the ERα-LBD was quantified by BLI using an Octet RED apparatus (Pall ForteBio, Menlo Park, CA, USA). ERα LBD (amino acids 302–552) was cloned into the pAN4 AviTag™ Vector, (Avidity, Aurora, CO, USA). Biotinylated ERα-LBD was purified as described previously. Biotinylated protein (bERα LBD at 0.05 mg/mL) was bound to the super streptavidin sensors (Pall ForteBio) overnight at 4 °C in assay buffer (20 mM Tris, pH 7.5, 500 mM NaCl, 0.2 mM tris(2-carboxyethyl)phosphine TCEP, 0.02 mM E2, 5% glycerol and 5% dimethyl sulfoxide (DMSO). The compounds were dissolved in the assay buffer in a two-fold dilution series ranging from 3.1–100 μM. In all experiments, a known AF2-interacting peptide, PGC-1α (Elim Biopharmaceuticals, Hayward, CA, USA) was used as a control to confirm the functionality of the bERα LBD.

PC3 cells = assay: Presto Blue cell viability assay, PC3; assay type: cell-based, human; details: PC3, 50 µM, 96 h
Method: Cell viability was determined using the Presto Blue cell viability assay (Thermo Fisher Scientific, Waltham, MA, USA). Cells were seeded in clear bottom black-walled 96-well plates at a density of 5 × 10^3 cells/well in 100 μL of their respective media. On the following day, the cells were treated with test compounds (0.001–22.5 μM) in the presence of 1 nM E2 and incubated at 37 °C. After 96 h, 30 μL of Presto Blue reagent was added and incubated for 10 min at 37 °C. The fluorescent signal from viable cells was measured at 590 nm.
Supplementary Materials: Benzothiophenone Derivatives Targeting Mutant Forms of Estrogen Receptor-α in Hormone-Resistant Breast Cancers
Figure S1. Effect of VPC-16606 on viability of PC3 cells as measured in the Presto Blue assay. […]
Figure S2. TR-FRET Assay showing displacement of Fluorescein labelled PGC1 α peptide by VPC-16606 upon incubation with ER β-LBD. OHT was used at 1µM. Error bars represent standard deviation for two independent experiments performed in triplicates. […]

[2] = tested on: mutant ERα (L536Q, Y537S, Y537C, Y537N, D538G, Y537S/D538G, S463P/Y537N); assay: Luciferase reporter assay with mutant ERα in transfected MDA-MB-231 cells; assay type: cell-based, human; details: all seven mutant forms, two-fold dilution starting at 50 µM, read-out: IC50 against constitutively-active mutant forms of ERα (luciferase)
Method: Figure 5 Predicted MD simulations and experimental effect of VPC-16606 on mutant forms of ERα. […] (C) E2 responsiveness of the synthesized mutants. (D) pcDNA3.1 plasmid encoding either the full-length WT or mutant forms of ERα was transfected into MDA-MB-231 cells along with the 3X-ERE-TATA luciferase reporter plasmid. The cells were treated with a two-fold dilution of VPC-16606 starting at 50 µM. […] Data points are expressed as the percentage of luciferase activity relative to DMSO control. Data were fitted using the log10 of concentration of the inhibitors vs. the response with GraphPad Prism 6. Error bars indicate the standard error of the mean (SEM) for 3 independent experiments performed in triplicates.
To test this hypothesis, a site-directed mutagenesis study was initiated on WT-ERα. MDA-MB-231 cells that were transfected with plasmids encoding either WT or mutant ERα (L536Q, Y537S, Y537C, Y537N, D538G, Y537S/D538G, S463P/Y537N) along with an E2-responsive luciferase reporter plasmid and a constitutively-active Renilla reporter plasmid. The cells were treated with VPC-16606 with two-fold dilution starting at 50 µM. […] This is particularly important because they corroborate the idea that such clinically-relevant mutant forms of the receptor, which cause the receptor to be E2 independent, can be inhibited by targeting an alternative functional site on the receptor. […]

ERα− MDA-MB-231 cells = assay: Presto Blue cell viability assay, MDA-MB-231; assay type: cell-based, human; details: ERα− MDA-MB-231, 96 h

SMILES: CC(=O)N(/N=C1\Sc2c(C)cccc2C1=O)c1ccccc1Cl [VPC-16606]
- mRNA levels of ERα-dependent genes pS2, PR, Cyclin D1 and CDC2 [1]: significantly downregulates
- Direct binding to ERα LBD (BLI) (ERα LBD): direct reversible interaction
- Cell viability of PC3 cells (PC3 cells): affects cell viability
- IC50 [2]: 500 to 1000 nM
- Cell growth (Presto Blue viability) (ERα− MDA-MB-231 cells): without any effect
